Source: PubChem BioAssay AID330 (DTP/NCI, 2004)
Values joined by “and” are separate entries in the source; they are usually repeats but may differ in a detail not shown here. Identical values can stand only once. Toxic doses and inconclusive results are not listed. The calls were made as follows: active = survival T/C of 150% or more; inactive = T/C below 125% in these data.

Tested on: P388 leukemia ip, CD2F1 mice, survival T/C
Experiment: NCI In Vivo Anticancer Drug Screen. Data for tumor model P388 Leukemia (intraperitoneal) in CD2F1 (CDF1) mice
Conditions: endpoint: median survival time, higher = longer survival
Summary of the method: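 Mice carrying the transplanted tumor received test compound or vehicle. Survival was recorded in each group, and the value is the treated-group measurement divided by that of the vehicle-treated control group.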

[1] = dose: 50.0 mg/kg/injection, schedule: Q01DX005 (ip), vehicle: saline
[2] = dose: 100.0 mg/kg/injection, schedule: Q01DX005 (ip), vehicle: saline
[3] = dose: 200.0 mg/kg/injection, schedule: Q01DX005 (ip), vehicle: saline
[4] = dose: 50.0 mg/kg/injection, schedule: Q01DX009 (ip), vehicle: saline with Tween-80

Measured: T/C

O=C1Nc2ccccc2C(=O)C1=Ic1ccccc1
inactive: dose: 15.0 mg/kg/injection, schedule: Q01DX005 (ip), vehicle: Klucel (hydroxypropylcellulose) (HPC) 101 % of control | dose: 30.0 mg/kg/injection, schedule: Q01DX005 (ip), vehicle: Klucel (hydroxypropylcellulose) (HPC) 104 % of control | dose: 50.0 mg/kg/injection, schedule: Q01DX005 (ip), vehicle: Klucel (hydroxypropylcellulose) (HPC) 94 % of control | dose: 60.0 mg/kg/injection, schedule: Q01DX005 (ip), vehicle: Klucel (hydroxypropylcellulose) (HPC) 104 % of control and 88 % of control | dose: 100.0 mg/kg/injection, schedule: Q01DX005 (ip), vehicle: Klucel (hydroxypropylcellulose) (HPC) 91 % of control

N#CC1(OC2OC(CO)C(O)C(O)C2O)C=CCC1 (centres undefined)
inactive: dose: 25.0 mg/kg/injection, schedule: Q01DX005 (ip), vehicle: saline 101 % of control | [1] 103 % of control | [2] 98 % of control | [3] 96 % of control

O=C(O)CC(=O)Nc1ccccc1S
inactive: [4] 102 % of control | dose: 100.0 mg/kg/injection, schedule: Q01DX009 (ip), vehicle: saline with Tween-80 90 % of control | dose: 200.0 mg/kg/injection, schedule: Q01DX009 (ip), vehicle: saline with Tween-80 101 % of control

CNc1nc(-c2ccc(OC)cc2)c(-c2ccc(OC)cc2)[nH]1
inactive: dose: 25.0 mg/kg/injection, schedule: Q04DX002 (ip), vehicle: saline with Tween-80 108 % of control and 111 % of control | dose: 50.0 mg/kg/injection, schedule: Q04DX002 (ip), vehicle: saline with Tween-80 107 % of control | dose: 100.0 mg/kg/injection, schedule: Q04DX002 (ip), vehicle: saline with Tween-80 99 % of control

CC(=O)Oc1c(Cl)c(Cl)c(C#N)c(Cl)c1C#N
inactive: dose: 25.0 mg/kg/injection, schedule: Q01DX009 (ip), vehicle: saline with Tween-80 100 % of control and 105 % of control | [4] 105 % of control

CCOC(=O)CC(Cc1cc(OC)ccc1OC)(C(C)=O)C(C)=O
inactive: dose: 25.0 mg/kg/injection, schedule: Q01DX009 (ip), vehicle: other 100 % of control | dose: 50.0 mg/kg/injection, schedule: Q01DX009 (ip), vehicle: other 100 % of control | dose: 100.0 mg/kg/injection, schedule: Q01DX009 (ip), vehicle: other 100 % of control | dose: 200.0 mg/kg/injection, schedule: Q01DX009 (ip), vehicle: other 98 % of control | dose: 400.0 mg/kg/injection, schedule: Q01DX009 (ip), vehicle: other 100 % of control

O=C(O)CP(=O)(O)O
inactive: dose: 4.0 mg/kg/injection, schedule: Q01DX009 (ip), vehicle: saline 94 % of control | dose: 6.25 mg/kg/injection, schedule: Q01DX009 (ip), vehicle: saline 100 % of control | dose: 8.0 mg/kg/injection, schedule: Q01DX009 (ip), vehicle: saline 99 % of control | dose: 12.5 mg/kg/injection, schedule: Q01DX009 (ip), vehicle: saline 101 % of control | dose: 16.0 mg/kg/injection, schedule: Q01DX009 (ip), vehicle: saline 91 % of control | dose: 25.0 mg/kg/injection, schedule: Q01DX009 (ip), vehicle: saline 106 % of control | dose: 32.0 mg/kg/injection, schedule: Q01DX009 (ip), vehicle: saline 100 % of control | dose: 50.0 mg/kg/injection, schedule: Q01DX009 (ip), vehicle: saline 103 % of control | dose: 64.0 mg/kg/injection, schedule: Q01DX009 (ip), vehicle: saline 102 % of control | dose: 100.0 mg/kg/injection, schedule: Q01DX009 (ip), vehicle: saline 103 % of control | dose: 128.0 mg/kg/injection, schedule: Q01DX009 (ip), vehicle: saline 94 % of control | dose: 200.0 mg/kg/injection, schedule: Q01DX009 (ip), vehicle: saline 106 % of control | dose: 400.0 mg/kg/injection, schedule: Q01DX009 (ip), vehicle: saline 101 % of control | dose: 800.0 mg/kg/injection, schedule: Q01DX009 (ip), vehicle: saline 106 % of control

COc1cc(OC)c(OC)cc1/C=C/C1=C(C)C(=O)CC(c2cc(OC)c(OC)cc2OC)C1C (centres undefined)
inactive: dose: 100.0 mg/kg/injection, schedule: Q01DX001 (ip), vehicle: Klucel (hydroxypropylcellulose) (HPC) 86 % of control | dose: 200.0 mg/kg/injection, schedule: Q01DX001 (ip), vehicle: Klucel (hydroxypropylcellulose) (HPC) 86 % of control

CC1=Nc2nc(=NCCCN(C)C)nc3cccc(n23)N1
inactive: dose: 15.0 mg/kg/injection, schedule: Q01DX005 (ip), vehicle: saline with Tween-80 99 % of control | dose: 30.0 mg/kg/injection, schedule: Q01DX005 (ip), vehicle: saline with Tween-80 100 % of control | dose: 60.0 mg/kg/injection, schedule: Q01DX005 (ip), vehicle: saline with Tween-80 104 % of control and 97 % of control

CS(=O)CCC(N)P(=O)(O)O (centres undefined)
inactive: [1] 92 % of control | [2] 99 % of control | [3] 99 % of control
